Assay: xn = mol fraction of the nth substance listed
Conditions: 100 kPa, Liquid; for electrical conductivity: Alternating current cell with electrodes; for mass density: Vibrating tube method; for viscosity: Capillary tube (Ostwald / Ubbelohde) method

CCCC[N+]1(C)CCCC1.N#CN=C=[N-] [1-butyl-1-methylpyrrolidinium dicyanamide] + O=C1CCCO1
Conditions	electrical conductivity [S/m]
303.15 K, Frequency=0.00857143 MHz, x1 = 0.2493	2.86
303.15 K, Frequency=0.00857143 MHz, x1 = 0.3029	2.79
303.15 K, Frequency=0.00857143 MHz, x1 = 0.3845	2.62
303.15 K, Frequency=0.00857143 MHz, x1 = 0.4985	2.33
303.15 K, Frequency=0.00857143 MHz, x1 = 0.6954	1.913
303.15 K, Frequency=0.00857143 MHz, x1 = 0.9013	1.609
303.15 K, Frequency=0.00857143 MHz, x1 = 1	1.527
303.15 K, Frequency=0.00892857 MHz, x1 = 0.0463	1.58
303.15 K, Frequency=0.00892857 MHz, x1 = 0.0987	2.38
303.15 K, Frequency=0.00892857 MHz, x1 = 0.1449	2.71
303.15 K, Frequency=0.00892857 MHz, x1 = 0.1859	2.902
303.15 K, Frequency=0.00892857 MHz, x1 = 0.2493	2.86
303.15 K, Frequency=0.00892857 MHz, x1 = 0.3029	2.79
303.15 K, Frequency=0.00892857 MHz, x1 = 0.3845	2.62
303.15 K, Frequency=0.00892857 MHz, x1 = 0.4985	2.33
303.15 K, Frequency=0.00892857 MHz, x1 = 0.6954	1.913
303.15 K, Frequency=0.00892857 MHz, x1 = 0.9013	1.609
303.15 K, Frequency=0.00892857 MHz, x1 = 1	1.527
303.15 K, Frequency=0.00961538 MHz, x1 = 0.0463	1.58
303.15 K, Frequency=0.00961538 MHz, x1 = 0.0987	2.38
303.15 K, Frequency=0.00961538 MHz, x1 = 0.1449	2.71
303.15 K, Frequency=0.00961538 MHz, x1 = 0.1859	2.903
303.15 K, Frequency=0.00961538 MHz, x1 = 0.2493	2.86
303.15 K, Frequency=0.00961538 MHz, x1 = 0.3029	2.79
303.15 K, Frequency=0.00961538 MHz, x1 = 0.3845	2.62
303.15 K, Frequency=0.00961538 MHz, x1 = 0.4985	2.33
303.15 K, Frequency=0.00961538 MHz, x1 = 0.6954	1.913
303.15 K, Frequency=0.00961538 MHz, x1 = 0.9013	1.609
303.15 K, Frequency=0.00961538 MHz, x1 = 1	1.527
303.15 K, Frequency=0.01 MHz, x1 = 0.0463	1.58
303.15 K, Frequency=0.01 MHz, x1 = 0.0987	2.38
303.15 K, Frequency=0.01 MHz, x1 = 0.1449	2.71
303.15 K, Frequency=0.01 MHz, x1 = 0.1859	2.903
303.15 K, Frequency=0.01 MHz, x1 = 0.2493	2.86
303.15 K, Frequency=0.01 MHz, x1 = 0.3029	2.79
303.15 K, Frequency=0.01 MHz, x1 = 0.3845	2.62
303.15 K, Frequency=0.01 MHz, x1 = 0.4985	2.33
303.15 K, Frequency=0.01 MHz, x1 = 0.6954	1.913
303.15 K, Frequency=0.01 MHz, x1 = 0.9013	1.609
303.15 K, Frequency=0.01 MHz, x1 = 1	1.527
313.15 K, Frequency=0.0005 MHz, x1 = 0.0463	1.78
313.15 K, Frequency=0.0005 MHz, x1 = 0.0987	2.71
313.15 K, Frequency=0.0005 MHz, x1 = 0.1449	3.13
313.15 K, Frequency=0.0005 MHz, x1 = 0.1859	3.34
313.15 K, Frequency=0.0005 MHz, x1 = 0.2493	3.35
313.15 K, Frequency=0.0005 MHz, x1 = 0.3029	3.302
313.15 K, Frequency=0.0005 MHz, x1 = 0.3845	3.15
313.15 K, Frequency=0.0005 MHz, x1 = 0.4985	2.87
313.15 K, Frequency=0.0005 MHz, x1 = 0.6954	2.421
313.15 K, Frequency=0.0005 MHz, x1 = 0.9013	2.08
313.15 K, Frequency=0.0005 MHz, x1 = 1	1.99
313.15 K, Frequency=0.001 MHz, x1 = 0.0463	1.78
313.15 K, Frequency=0.001 MHz, x1 = 0.0987	2.71
313.15 K, Frequency=0.001 MHz, x1 = 0.1449	3.13
313.15 K, Frequency=0.001 MHz, x1 = 0.1859	3.35
313.15 K, Frequency=0.001 MHz, x1 = 0.2493	3.36
313.15 K, Frequency=0.001 MHz, x1 = 0.3029	3.309
313.15 K, Frequency=0.001 MHz, x1 = 0.3845	3.15
313.15 K, Frequency=0.001 MHz, x1 = 0.4985	2.87
313.15 K, Frequency=0.001 MHz, x1 = 0.6954	2.422
313.15 K, Frequency=0.001 MHz, x1 = 0.9013	2.08
313.15 K, Frequency=0.001 MHz, x1 = 1	2
313.15 K, Frequency=0.0015 MHz, x1 = 0.0463	1.79
313.15 K, Frequency=0.0015 MHz, x1 = 0.0987	2.72
313.15 K, Frequency=0.0015 MHz, x1 = 0.1449	3.13
313.15 K, Frequency=0.0015 MHz, x1 = 0.1859	3.35
313.15 K, Frequency=0.0015 MHz, x1 = 0.2493	3.36
313.15 K, Frequency=0.0015 MHz, x1 = 0.3029	3.312
313.15 K, Frequency=0.0015 MHz, x1 = 0.3845	3.16
313.15 K, Frequency=0.0015 MHz, x1 = 0.4985	2.87
313.15 K, Frequency=0.0015 MHz, x1 = 0.6954	2.424
313.15 K, Frequency=0.0015 MHz, x1 = 0.9013	2.09
313.15 K, Frequency=0.0015 MHz, x1 = 1	2
313.15 K, Frequency=0.002 MHz, x1 = 0.0463	1.79
313.15 K, Frequency=0.002 MHz, x1 = 0.0987	2.72
313.15 K, Frequency=0.002 MHz, x1 = 0.1449	3.13
313.15 K, Frequency=0.002 MHz, x1 = 0.1859	3.36
313.15 K, Frequency=0.002 MHz, x1 = 0.2493	3.36
313.15 K, Frequency=0.002 MHz, x1 = 0.3029	3.314
313.15 K, Frequency=0.002 MHz, x1 = 0.3845	3.16
313.15 K, Frequency=0.002 MHz, x1 = 0.4985	2.87
313.15 K, Frequency=0.002 MHz, x1 = 0.6954	2.424
313.15 K, Frequency=0.002 MHz, x1 = 0.9013	2.09

Conditions	electrical conductivity, 313.15 K [S/m]	mass density, 303.15 K [kg/m3]	viscosity, 313.15 K [mPa·s]
x1 = 0.0463	1.79	–	–
x1 = 0.0987	2.73	1099.02	2.18
x1 = 0.1449	3.13	–	–
x1 = 0.1859	3.37	1083.47	3.04
x1 = 0.2493	3.36	–	–
x1 = 0.3029	3.319	1066.18	4.52
x1 = 0.3845	3.16	–	–
x1 = 0.4985	2.88	1044.28	7.85
x1 = 0.6954	2.426	1028.17	12.31
x1 = 0.9013	2.09	1015.57	18.01
x1 = 1	2	1010.64	21.07

— the NIST ThermoML archive (doi:10.1016/j.jct.2015.08.014)
